Read-outs that look alike come from different tables or passages of the source. Where a SMILES comes first, the peptide text is derived from it. [ ]: non-standard residue; d: D form. The star is where a group is joined. Malonyl(2,2-Me2,histaminyl) = CC(C)(C(=O)NCCc1cnc[nH]1)C(=O)*; d(hArg) = N=C(N)NCCCC[C@@H](N)C(=O)O; Gly(NCH2CH2Ph) = O=C(O)CNCCc1ccccc1; Hyp = O=C(O)[C@@H]1C[C@@H](O)CN1; hArg = N=C(N)NCCCC[C@H](N)C(=O)O; NMeN = CN[C@@H](CC(N)=O)C(=O)O; Aoc(2) = CCCCCC[C@H](N)C(=O)O; Phg = N[C@H](C(=O)O)c1ccccc1; Nle = CCCC[C@H](N)C(=O)O
Legend:
[1] = molecular target: T1, human orexin type 2 receptor (hOX2R) (Homo sapiens, UniProt O43614); assay: Measurement of orexin type 2 receptor agonist activity (CHO cells, FLIPR TETRA intracellular Ca2+); format: cell-based
T1 construct: expressed in transfected cells
T1 sequence (O43614 1-444): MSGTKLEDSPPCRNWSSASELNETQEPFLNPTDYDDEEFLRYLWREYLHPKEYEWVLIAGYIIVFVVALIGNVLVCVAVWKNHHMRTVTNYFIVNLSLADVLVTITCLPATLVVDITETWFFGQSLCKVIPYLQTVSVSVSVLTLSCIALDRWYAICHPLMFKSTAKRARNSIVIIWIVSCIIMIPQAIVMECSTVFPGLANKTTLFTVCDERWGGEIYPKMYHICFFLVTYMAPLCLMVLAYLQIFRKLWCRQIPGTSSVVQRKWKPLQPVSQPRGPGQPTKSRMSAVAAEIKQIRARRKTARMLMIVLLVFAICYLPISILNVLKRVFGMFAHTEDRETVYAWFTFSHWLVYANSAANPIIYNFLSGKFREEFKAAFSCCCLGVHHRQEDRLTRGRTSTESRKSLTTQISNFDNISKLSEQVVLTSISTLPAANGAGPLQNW
From the text: (§1) In some embodiments, the assay uses cells stably expressing either human orexin type 2 or human orexin type 1 receptor. In some embodiments, the cells are obtained by inserting the Orexin receptor cDNA into pcDNA3.1(+) plasmid vector, identifying clones by G418 drug resistance selection, and/or growing a single clone for OX2R-CHO and OX1R-CHO in bulk. In some embodiments, the assay is detected using Fluorescent Imaging Plate Reader TETRA (FLIPR TETRA: manufactured by Molecular Devices). In some embodiments, the agonist activity of the test peptide is calculated assuming that the fluorescence value of the well containing only the dilution buffer is 0% and the fluorescence value of the well containing 10 nM human orexin A (Tocris) buffer is 100%.
(§2) Stable cell line generation. Obtainment of cells stably expressing either human orexin type 2 or human orexin type 1 receptor: to obtain a stable cell line the Orexin receptor cDNA was inserted into pcDNA3.1(+) plasmid vector and clones identified by G418 drug resistance selection. […] A single clone for OX2R-CHO and OX1R-CHO were grown in bulk and frozen to generate a cell bank for routine screening.
(§3) Measurement of orexin type 2 receptor agonist activity. Chinese hamster ovary (CHO) cells expressing human orexin type 2 receptor (hOX2R) seeded in each well of 384 well black clear bottom plates (BD Flacon) at 10,000 cells per well and cultured for 24 h in an Ham's F12 (Gibco) medium containing 10% fetal calf serum (Sigma Aldrich) under the conditions of 37° C., 5% CO2. After removal of the medium, 50 μL of assay buffer 1 (0.1% bovine serum albumin (Sigma Aldrich), 20 mM HEPES (Molecular Dimensions), […] probenecid (Sigma Aldrich), 1× Calcium 5 dye (Molecular Devices) in Hank's balanced salt solution (Invitrogen)) was added, and the cells were incubated for 60 min under the conditions of 37° C., 5% CO2. A test peptide was dissolved in dimethyl sulfoxide (Sigma Aldrich) to 1 mM, and then diluted with assay buffer 2 (20 mM HEPES, Hank's balanced salt solution, 0.1% bovine serum albumin). For the reaction, a test peptide solution (10 μl) was added using Fluorescent Imaging Plate Reader TETRA (FLIPR TETRA: manufactured by Molecular Devices), a fluorescence value (excitation wavelength 488 nm, measurement wavelength 570 nm) of each well was measured every one second for 2 min, and the agonist activity was determined using the area of the fluorescence value as an indicator of intracellular Ca^2+ concentration. The agonist activity of the test peptide was calculated assuming that the fluorescence value of the well added with only the dilution buffer was 0% and the fluorescence value of the well added with 10 nM human orexin A (Tocris) buffer was 100%. As used herein, Emax indicates the value at 1 μM concentration when orexin A is converted to a full agonist (maximum value of agonist activity: 100%).

[2] = molecular target: T2, human orexin type 1 receptor (hOX1R) (Homo sapiens, UniProt O43613); assay: Measurement of orexin type 1 receptor agonist activity (CHO cells, FLIPR TETRA intracellular Ca2+); format: cell-based
T2 construct: expressed in transfected cells
T2 sequence (O43613 1-425): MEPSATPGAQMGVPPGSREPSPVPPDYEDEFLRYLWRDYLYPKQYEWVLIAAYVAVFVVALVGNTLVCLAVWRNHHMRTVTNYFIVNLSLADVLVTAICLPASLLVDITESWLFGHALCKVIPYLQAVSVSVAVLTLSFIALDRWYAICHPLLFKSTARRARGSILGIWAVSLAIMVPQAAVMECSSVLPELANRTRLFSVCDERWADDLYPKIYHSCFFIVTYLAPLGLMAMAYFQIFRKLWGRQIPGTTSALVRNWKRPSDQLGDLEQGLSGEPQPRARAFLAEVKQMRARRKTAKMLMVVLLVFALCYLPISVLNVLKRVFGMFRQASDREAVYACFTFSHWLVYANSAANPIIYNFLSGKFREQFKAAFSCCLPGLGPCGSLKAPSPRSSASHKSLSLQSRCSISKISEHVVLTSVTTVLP
From the text: as §1, §2
as §3, with “type 1” for “type 2”, “receptor (hOX1R) were” for “receptor (hOX2R)”

[3] = CHO cells expressing hOX2R, Ca2+ fluorescence, read-out: hOX2 pEC50 (converted)
[4] = CHO cells expressing hOX1R, Ca2+ fluorescence, read-out: hOX1 pEC50 (converted)

SMILES	EC50 [1, 3] [nM]	EC50 [2, 4] [nM]	EC50 [1] [nM]	EC50 [2] [nM]
CCCCCC[C@H](NC(=O)[C@@H](NC(=O)[C@H](CC(C)C)NC(=O)[C@@H](NC(=O)CNC(=O)[C@@H](NC(=O)[C@H](C)NC(=O)[C@@H]1C[C@@H](O)CN1C(=O)[C@H](CC(N)=O)N(C)C(=O)CN(CCc1ccccc1)C(=O)[C@H](CCCNC(=N)N)NC(=O)[C@@H]1CCCN1C(=O)[C@@H](CCCCNC(=N)N)NC(=O)[C@@H](CCC(N)=O)NC(=O)C(C)(C)C(=O)NCCc1cnc[nH]1)c1ccccc1)[C@@H](C)CC)[C@@H](C)O)C(N)=O [compound 7] ({Malonyl(2,2-Me2,histaminyl)}-[dQ][d(hArg)]PR[Gly(NCH2CH2Ph)][NMeN][Hyp]A[Phg]GILT[Aoc(2)]-NH2)	–	–	< 0.1	> 10
CCCCCC[C@H](NC(=O)[C@@H](NC(=O)[C@H](CC(C)C)NC(=O)[C@@H](NC(=O)CNC(=O)[C@@H](NC(=O)[C@H](C)NC(=O)[C@@H]1C[C@@H](O)CN1C(=O)[C@H](CC(N)=O)N(C)C(=O)CN(CCc1ccccc1)C(=O)[C@H](CCCCN)NC(=O)[C@@H]1CCCN1C(=O)[C@H](CCCCNC(=N)N)NC(=O)[C@H](CCC(N)=O)NC(=O)C(C)(C)C(=O)NCCc1cnc[nH]1)c1ccccc1)[C@@H](C)CC)[C@@H](C)O)C(N)=O [compound 8] ({Malonyl(2,2-Me2,histaminyl)}-Q[hArg]PK[Gly(NCH2CH2Ph)][NMeN][Hyp]A[Phg]GILT[Aoc(2)]-NH2)	–	–	< 0.1	> 10
CCCCCC[C@H](NC(=O)[C@@H](NC(=O)[C@H](CC(C)C)NC(=O)[C@@H](NC(=O)CNC(=O)[C@@H](NC(=O)[C@H](C)NC(=O)[C@@H]1C[C@@H](O)CN1C(=O)[C@H](CC(N)=O)NC(=O)CN(CCc1ccccc1)C(=O)[C@H](CCCNC(=N)N)NC(=O)[C@@H]1C[C@@H](O)CN1C(=O)[C@@H]1C[C@@H](O)CN1C(=O)[C@@H]1C[C@@H](O)CN1)c1ccccc1)[C@@H](C)CC)[C@@H](C)O)C(N)=O [compound 9] (H-[Hyp][Hyp][Hyp]R[Gly(NCH2CH2Ph)]N[Hyp]A[Phg]GILT[Aoc(2)]-NH2)	< 0.1	> 10	–	–
CCCC[C@H](NC(=O)[C@@H](NC(=O)[C@H](CC(C)C)NC(=O)[C@@H](NC(=O)CNC(=O)[C@@H](NC(=O)[C@H](C)NC(=O)[C@H](Cc1c[nH]cn1)NC(=O)[C@H](CC(N)=O)NC(=O)CNC(=O)[C@H](CO)NC(=O)[C@H](C)NC(=O)[C@H](Cc1c[nH]c2ccccc12)NC(=O)[C@@H](CC(C)C)NC(=O)[C@@H](N)Cc1ccccc1)c1ccccc1)[C@@H](C)CC)[C@@H](C)O)C(N)=O [compound 10] (H-F[dL]WASGNHA[Phg]GILT[Nle]-NH2)	< 0.1	> 10	–	–
CCCC[C@H](NC(=O)[C@@H](NC(=O)[C@H](CC(C)C)NC(=O)[C@@H](NC(=O)CNC(=O)[C@@H](NC(=O)[C@H](C)NC(=O)[C@H](Cc1c[nH]cn1)NC(=O)[C@H](CC(N)=O)NC(=O)CNC(=O)[C@H](CO)NC(=O)[C@H](C)NC(=O)[C@H](Cc1c[nH]c2ccccc12)NC(=O)[C@@H](CC(C)C)NC(=O)[C@@H](N)CC(C)C)c1ccccc1)[C@@H](C)CC)[C@@H](C)O)C(N)=O [compound 11] (H-L[dL]WASGNHA[Phg]GILT[Nle]-NH2)	< 0.1	> 10	–	–
CCCC[C@H](NC(=O)[C@@H](NC(=O)[C@H](CC(C)C)NC(=O)[C@@H](NC(=O)CNC(=O)[C@H](C)NC(=O)[C@H](C)NC(=O)[C@H](Cc1c[nH]cn1)NC(=O)[C@H](CC(N)=O)NC(=O)CNC(=O)[C@H](CO)NC(=O)[C@@H](C)NC(=O)[C@@H](Cc1ccccc1)NC(=O)[C@H](CC(C)C)NC(=O)[C@@H](N)CC(C)C)[C@@H](C)CC)[C@@H](C)O)C(N)=O [compound 12] (H-LL[dF][dA]SGNHAAGILT[Nle]-NH2)	< 0.1	> 10	–	–

The next lines start with results.

EC50 [1, 3] [nM]	EC50 [2, 4] [nM]	SMILES	EC50 [1] [nM]	EC50 [2] [nM]
< 0.1	> 10	CCCC[C@H](NC(=O)[C@@H](NC(=O)[C@H](CC(C)C)NC(=O)[C@@H](NC(=O)CNC(=O)[C@H](C)NC(=O)[C@H](C)NC(=O)[C@H](Cc1c[nH]cn1)NC(=O)[C@H](CC(N)=O)NC(=O)CNC(=O)[C@H](CO)NC(=O)[C@@H](C)NC(=O)[C@@H](Cc1ccccc1)NC(=O)[C@H](CC(C)C)NC(=O)[C@@H](N)Cc1ccccc1)[C@@H](C)CC)[C@@H](C)O)C(N)=O [compound 13] (H-FL[dF][dA]SGNHAAGILT[Nle]-NH2)	–	–
< 0.1	> 10	CCCC[C@H](NC(=O)[C@@H](NC(=O)[C@H](CC(C)C)NC(=O)[C@@H](NC(=O)CNC(=O)[C@H](C)NC(=O)[C@H](C)NC(=O)[C@H](Cc1c[nH]cn1)NC(=O)[C@H](CC(N)=O)NC(=O)CNC(=O)[C@H](CO)NC(=O)[C@@H](C)NC(=O)[C@@H](Cc1ccccc1)NC(=O)[C@@H](CC(C)C)NC(=O)[C@@H](N)CC(C)C)[C@@H](C)CC)[C@@H](C)O)C(N)=O [compound 14] (H-L[dL][dF][dA]SGNHAAGILT[Nle]-NH2)	–	–
< 0.1	1 to 10	CCCCCC[C@H](NC(=O)[C@@H](NC(=O)[C@H](CC(C)C)NC(=O)[C@@H](NC(=O)CNC(=O)[C@@H](NC(=O)[C@H](C)NC(=O)[C@@H]1C[C@@H](O)CN1C(=O)[C@H](CC(N)=O)NC(=O)CN(CCc1ccccc1)C(=O)[C@H](CCCNC(=N)N)NC(=O)[C@H](CCCNC(=N)N)NC(=O)[C@@H]1C[C@@H](O)CN1C(=O)[C@@H]1C[C@@H](O)CN1C(=O)[C@@H]1C[C@@H](O)CN1)c1ccccc1)[C@@H](C)CC)[C@@H](C)O)C(N)=O [compound 15] (H-[Hyp][Hyp][Hyp]RR[Gly(NCH2CH2Ph)]N[Hyp]A[Phg]GILT[Aoc(2)]-NH2)	–	–

Reference: patent US20250277001A1, “PEPTIDE DERIVATIVES AND RELATED USES AS OREXIN AGONISTS” (CENTESSA PHARMACEUTICALS (UK) LIMITED, priority 2022, published 2025)
